Each structure is given as a SMILES string. Where a name gives a salt, the structure may show the parent alone. Read-outs that look alike come from different tables or passages of the source.

Experimental findings from patent US8124780B2, “Benzimidazole compound” (priority 2005, dated 2012) are described below.

The test system of this test is gastric acid secretion. The test can be described thus: animal or person. It is filed as in vivo, dog. As to conditions: for inhibition in vivo at 0.4 mg/kg / inhibition in vivo at 0.8 mg/kg / inhibition in vivo at 0.2 mg/kg / inhibition in vivo at 1.6 mg/kg / inhibition in vivo at 0.1 mg/kg: Canis lupus familiaris; for inhibition in vivo at 0.1 mg/kg: dose 0.1 mg/kg i.d.

Where [1] appears, read: iv, 24 h, read-out: Persistency of inhibitory effect against gastric acid secretion (%).
The mark [2] stands for this setting: iv, read-out: Inhibitory effect against gastric acid secretion (%).
Setting [3] is: dose 0.4 mg/kg i.d., first day, 1 h 40 min to 2 h after administration, histamine i.v., 0.4 mg/kg.
Where [4] appears, read: dose 0.4 mg/kg i.d., second day, 24 hours after administration, histamine i.v., 0.4 mg/kg.

Take `Cc1c(OCC2OCC(C)(C)CO2)ccnc1C[S+]([O-])c1nc2ccccc2[nH]1` (stereo not drawn) [Example 1, 2-(((4-((5,5-dimethyl-1,3-dioxan-2-yl)methoxy)-3-methylpyridin-2-yl)methyl)sulfinyl)-1H-benzimidazole sodium salt]: under setting [1], the inhibition in vivo at 0.4 mg/kg came out at 76% and the inhibition in vivo at 0.8 mg/kg worked out at 90%. Under setting [2], the inhibition in vivo at 0.4 mg/kg turned out to be 94% and the inhibition in vivo at 0.8 mg/kg was 100%.
For the compound `Cc1c(OCC2OCC3(CC3)CO2)ccnc1C[S+]([O-])c1nc2ccccc2[nH]1` (stereo not drawn) [Example 2, 2-(((4-(5,7-dioxaspiro[2.5]oct-6-ylmethoxy)-3-methylpyridin-2-yl)methyl)sulfinyl)-1H-benzimidazole sodium salt], under setting [1], the inhibition in vivo at 0.2 mg/kg was 52%, the inhibition in vivo at 0.4 mg/kg was 90% and the inhibition in vivo at 0.8 mg/kg stood at 96%. Under setting [2], the inhibition in vivo at 0.2 mg/kg is 83%, the inhibition in vivo at 0.4 mg/kg was determined as 100% and the inhibition in vivo at 0.8 mg/kg is 100%.
For `CCCC1(CCOc2ccnc(C[S+]([O-])c3nc4ccccc4[nH]3)c2C)OCCO1` (stereo not drawn) [Example 3, 2-(((3-methyl-4-(2-(2-propyl-1,3-dioxolan-2-yl)ethoxy)pyridin-2-yl)methyl)sulfinyl)-1H-benzimidazole sodium salt], the inhibition in vivo at 0.8 mg/kg under setting [1] is 86% and the inhibition in vivo at 0.8 mg/kg under setting [2] was found to be 100%.
Taken in the same sequence, the figures for `CCC1(CCOc2ccnc(C[S+]([O-])c3nc4ccccc4[nH]3)c2C)OCC2(CO1)OCCO2` (stereo not drawn) [Example 4, 2-(((4-(2-(8-ethyl-1,4,7,9-tetraoxaspiro[4.5]dec-8-yl)ethoxy)-3-methylpyridin-2-yl)methyl)sulfinyl)-1H-benzimidazole sodium salt] were 93% and 100%.
On to `Cc1c(OCC2(C)OCC3(CO2)OCCO3)ccnc1C[S+]([O-])c1nc2ccccc2[nH]1` (stereo not drawn) [Example 5, 2-(((3-methyl-4-((8-methyl-1,4,7,9-tetraoxaspiro[4.5]dec-8-yl)methoxy)pyridin-2-yl)methyl)sulfinyl)-1H-benzimidazole sodium salt], for which, under setting [1], the inhibition in vivo at 0.4 mg/kg is 61% and the inhibition in vivo at 0.8 mg/kg worked out at 89%. Moreover, under setting [2], the inhibition in vivo at 0.4 mg/kg is 54% and the inhibition in vivo at 0.8 mg/kg was found to be 100%.
As for `COC1OCC(COc2ccnc(C[S+]([O-])c3nc4ccccc4[nH]3)c2C)CO1` (stereo not drawn) [Example 6, 2-(((4-((2-methoxy-1,3-dioxan-5-yl)methoxy)-3-methylpyridin-2-yl)methyl)sulfinyl)-1H-benzimidazole sodium salt], the inhibition in vivo at 0.8 mg/kg by setting is: under setting [1], 89%; under setting [2], 100%.
Taken in the same sequence, the figures for `Cc1c(OCC2COC(CF)(CF)OC2)ccnc1C[S+]([O-])c1nc2ccccc2[nH]1` (stereo not drawn) [Example 7, 2-(((4-((2,2-bis(fluoromethyl)-1,3-dioxan-5-yl)methoxy)-3-methylpyridin-2-yl)methyl)sulfinyl)-1H-benzimidazole sodium salt] were 90% and 99%.
Taken in the same sequence, the figures for `CCCC1(CCOc2ccnc(C[S+]([O-])c3nc4ccccc4[nH]3)c2C)OCCCO1` (stereo not drawn) [Example 8, 2-(((3-methyl-4-(2-(2-propyl-1,3-dioxan-2-yl)ethoxy)pyridin-2-yl)methyl)sulfinyl)-1H-benzimidazole sodium salt] were 88% and 100%.
Taken in the same sequence, the figures for `Cc1c(OC2COC3(CCC3)OC2)ccnc1C[S+]([O-])c1nc2ccccc2[nH]1` (stereo not drawn) [Example 9, 2-(((4-(5,9-dioxaspiro[3.5]non-7-yloxy)-3-methylpyridin-2-yl)methyl)sulfinyl)-1H-benzimidazole sodium salt] were 90% and 100%.
Take `Cc1c(OCC2COC3(CCOCC3)OC2)ccnc1C[S+]([O-])c1nc2ccccc2[nH]1` (stereo not drawn) [Example 10, 2-(((3-methyl-4-(1,5,9-trioxaspiro[5.5]undec-3-ylmethoxy)pyridin-2-yl)methyl)sulfinyl)-1H-benzimidazole sodium salt]: the inhibition in vivo at 0.8 mg/kg runs as follows: under setting [1], 90%; under setting [2], 98%. Moreover, the inhibition in vivo at 1.6 mg/kg under setting [1] was determined as 87% and the inhibition in vivo at 1.6 mg/kg under setting [2] was found to be 100%.
As to `Cc1cnc(C[S+]([O-])c2nc3ccccc3[nH]2)c(C)c1OCC1COC(C)(C)OC1` (stereo not drawn) [Example 11, 2-(((4-((2,2-dimethyl-1,3-dioxan-5-yl)methoxy)-3,5-dimethylpyridin-2-yl)methyl)sulfinyl)-1H-benzimidazole sodium salt], under setting [1], the inhibition in vivo at 0.4 mg/kg was determined as 65% and the inhibition in vivo at 0.8 mg/kg came out at 89%. Also, under setting [2], the inhibition in vivo at 0.4 mg/kg turned out to be 79% and the inhibition in vivo at 0.8 mg/kg was 100%.
Consider `Cc1c(OCC2COC(C)(C)OC2)ccnc1C[S+]([O-])c1nc2ccccc2[nH]1` (stereo not drawn) [Example 12, 2-(((4-((2,2-dimethyl-1,3-dioxan-5-yl)methoxy)-3-methylpyridin-2-yl)methyl)sulfinyl)-1H-benzimidazole sodium salt], for which the inhibition in vivo at 0.8 mg/kg under setting [1] stood at 86% and the inhibition in vivo at 0.8 mg/kg under setting [2] worked out at 100%.
Taken in the same sequence, the figures for `Cc1cnc(C[S+]([O-])c2nc3ccccc3[nH]2)c(C)c1OCC1COC2(CCC2)OC1` (stereo not drawn) [Example 13, 2-(((4-(5,9-dioxaspiro[3.5]non-7-ylmethoxy)-3,5-dimethylpyridin-2-yl)methyl)sulfinyl)-1H-benzimidazole sodium salt] were 74% and 100%.
For the compound `Cc1cnc(C[S+]([O-])c2nc3ccccc3[n-]2)c(C)c1OCC1COC(C)(C)OC1.[Na+]` (stereo not drawn) [Example 19, Sodium salt of an optical isomer (long in retention time) of 2-(((4-((2,2-dimethyl-1,3-dioxan-5-yl)methoxy)-3,5-dimethylpyridin-2-yl)methyl)sulfinyl)-1H-benzimidazole], for the setting “i.d., dose 0.8 mg/kg i.d., first day, 1 h 40 min to 2 h after administration, histamine i.v., read-out: Inhibitory effect against gastric acid secretion (%)”, the inhibition in vivo at 0.8 mg/kg came to 82%. Further, the “Inhibitory effect against gastric acid secretion (%)” value under setting [3] came out at 13%. Also, the “Persistency of inhibitory effect against gastric acid secretion (%)” value (“Persistency of inhibitory effect … (%)” below) reads like this: under setting [4], −4%; (dose 0.8 mg/kg i.d., second day, 24 hours after administration, histamine i.v.) 56%.
Turning to `Cc1cnc(C[S+]([O-])c2nc3ccccc3[n-]2)c(C)c1OCC1COC(C)(C)OC1.[Na+]` (stereo not drawn) [Example 20, Sodium salt of an optical isomer (short in retention time) of 2-(((4-(2,2-dimethyl-1,3-dioxan-5-yl)methoxy-3,5-dimethylpyridin-2-yl)methyl)sulfinyl)-1H-benzimidazole], the inhibition in vivo at 0.1 mg/kg worked out at 6% (i.d., 24 h, second day, 24 hours after administration, histamine i.v., read-out: Persistency of inhibitory effect against gastric acid secretion (%)) and 8% (i.d., first day, 1 h 40 min to 2 h after administration, histamine i.v., read-out: Inhibitory effect against gastric acid secretion (%)). In addition, the inhibition in vivo at 0.2 mg/kg was found to be 46% (i.d., 24 h, dose 0.2 mg/kg i.d., second day, 24 hours after administration, histamine i.v., read-out: Persistency of inhibitory effect against gastric acid secretion (%)) and 65% (i.d., dose 0.2 mg/kg i.d., first day, 1 h 40 min to 2 h after administration, histamine i.v., read-out: Inhibitory effect against gastric acid secretion (%)). For the same compound, the “Inhibitory effect against gastric acid secretion (%)” value under setting [3] worked out at 97% and the “Inhibitory effect against gastric acid secretion (%)” value (dose 0.8 mg/kg i.d., first day, 1 h 40 min to 2 h after administration, histamine i.v., 0.8 mg/kg) is 100%. The “Persistency of inhibitory effect … (%)” value runs as follows: under setting [4], 77%; (dose 0.8 mg/kg i.d., second day, 24 hours after administration, histamine i.v., 0.8 mg/kg) 89%.
`Cc1c(OCC2COC3(CCCC3)OC2)ccnc1C[S+]([O-])c1nc2ccccc2[nH]1` (stereo not drawn) [Example 21, 2-(((4-(6,10-dioxaspiro[4.5]dec-8-ylmethoxy)-3-methylpyridin-2-yl)methyl)sulfinyl)-1H-benzimidazole sodium salt]: the inhibition in vivo at 1.6 mg/kg was 94% under setting [1] and 100% under setting [2].
In the same order, the values of `Cc1c(OCC2COC3(CCC3)OC2)ccnc1C[S+]([O-])c1nc2ccccc2[nH]1` (stereo not drawn) [Example 22, 2-(((4-(5,9-dioxaspiro[3.5]non-7-ylmethoxy)-3-methylpyridin-2-yl)methyl)sulfinyl)-1H-benzimidazole sodium salt] are 97% and 100%.
In the same order, the values of `CCC1(CC)OCC(COc2ccnc(C[S+]([O-])c3nc4ccccc4[nH]3)c2C)CO1` (stereo not drawn) [Example 23, 2-(((4-((2,2-diethyl-1,3-dioxan-5-yl)methoxy)-3-methylpyridin-2-yl)methyl)sulfinyl)-1H-benzimidazole sodium salt] are 92% and 100%.
Consider `Cc1c(OCC23COC(C)(OC2)OC3)ccnc1C[S+]([O-])c1nc2ccccc2[n-]1.[Na+]` (stereo not drawn) [Example 24, 2-(((3-methyl-4-((1-methyl-2,6,7-trioxabicyclo[2.2.2]oct-4-yl)methoxy)pyridin-2-yl)methyl)sulfinyl)-1H-benzimidazole sodium salt], for which, where the note is “dog, in vivo, iv, 1.6 mg/kg”, the “Inhibitory effect against gastric acid secretion (%)” value was 88% and the “Persistency of inhibitory effect … (%)” value turned out to be 80%.
As to `Cc1c(OC2COC(C)(C)OC2)ccnc1C[S+]([O-])c1nc2ccccc2[nH]1` (stereo not drawn) [Example 26, 2-(((4-((2,2-dimethyl-1,3-dioxan-5-yl)oxy)-3-methylpyridin-2-yl)methyl)sulfinyl)-1H-benzimidazole sodium salt], the inhibition in vivo at 1.6 mg/kg reads like this: under setting [1], 80%; under setting [2], 100%.
